{
  "source": "patent US11129871B1",
  "about": "“Compositions and methods for treating and preventing endoplasmic reticulum (ER) stress-mediated kidney diseases” (Washington University, priority 2018, dated 2021)",
  "molecules": {"B1": {"name": "MANF: Recombinant human MANF from R&D Systems; 18 kDa soluble ER stress inducible secreted protein (protein, UniProt P55145 25-182, looked up)", "Mesencephalic …": "LRPGDCEVCISYLGRFYQDLKDRDVTFSPATIENELIKFCREARGKENRLCYYIGATDDAATKIINEVSKPLAHHIPVEKICEKLKKKDSQICELKYDKQIDLSTVDLKKLRVKELKKILDDWGETCKGCAEKSDYIRKINELMPKYAPKAASARTDL"}},
  "key": {"primary podocytes": {"tested_on": "primary podocytes", "experiment": "MTT cell viability assay", "assay_type": "cell-based, mouse", "details": "1-5 μM of K201", "procedure": "The higher apoptotic rates in all groups were most likely due to the effect of DMSO.\nIsolated glomeruli from Tg-WT, Tg-C321R, and Lamb2^+/− mice at P27 were plated onto collagen type I-coated culture dishes, and cultured in 5% CO2 at 37° C. in DMEM (Gibco, NY):Ham's F-12 (Lonza, NY) (2:1) that contained 3T3-L1 supernatant, 5% heat-inactivated fetal bovine serum (Gibco), 1% Insulin-Transferrin-Selenium liquid media supplement (Gibco), and 100 U/ml penicillin-streptomycin (Gibco). After 3 days, cell colonies began to sprout around the glomeruli. […] Passage 0 podocytes from the indicated genotypes were used for RNA sequencing, and passages 1 and 2 podocytes for other in vitro studies."}, "[1]": {"tested_on": "293T cells stably expressing SERCaMP", "experiment": "SERCaMP secretion (GLuc luciferase) assay of ER calcium depletion induced by thapsigargin", "assay_type": "cell-based, human", "procedure": "FIG. 11A-FIG. 11B. SERCaMP secretion is specifically triggered by ER calcium depletion. 293T cells stably expressing (A) SERCaMP or (B) control GLuc-STOP were treated with 0.1 μM TG or DMSO, for varying durations. Luciferase activity was measured in the medium (mean±SD, n=3) and normalized to the respective baseline. **P<0.01 by t-test.\nRyR expression was next examined at the protein level. […] Since it has been shown that RyR2 isoform is present in the rabbit kidney cortex and its activity is modulated by phosphorylation of the channel, phosphorylation of RyR2 at Ser2808 was further examined. […] It has been shown that the carboxy-terminal sequence of an ER stress protein MANF (mesencephalic astrocyte-derived neurotrophic factor), ASARTDL (SEQ ID NO: 3), is sufficient to specifically confer ER calcium-depletion-dependent secretion. […] When human embryonic kidney (HEK) 293T cells stably expressing SERCaMP or control GLuc-STOP without the ASARTDL tag were treated with DMSO or 0.1 μM thapsigargin (TG), a SERCA inhibitor causing ER calcium depletion for 6 hours, SERCaMP secretion, as measured by luciferase activity in the cell culture medium, was increased in response to ER calcium depletion induced by TG (see e.g., FIG. 11A and FIG. 11B)."}, "Tg-C321R mice": {"tested_on": "Tg-C321R mice", "experiment": "K201 treatment of podocyte ER stress-induced NS mouse model (urinary calpain, albuminuria, BUN)", "assay_type": "in vivo", "details": "for albuminuria: K201 12.5-15 mg/kg i.p.", "procedure": "Urinary calpain activity was measured by Calpain-Glo™ Protease Assay (Promega, Madison, Wis.). In brief, urines were incubated with calpain substrate (Succinyl-LLVY-aminoluciferin). Following cleavage of substrate by calpain, the substrate for luciferase (aminoluciferin) was released, allowing the luciferase reaction to occur and luminescence to be detected by Femtomaster FB12 Luminometer. The actual values of raw light units were normalized by urine Cr for each group.\n(§1) BUN was measured by using a QuantiChrom™ urea assay kit (DIUR-500) (BioAssay Systems, Hayward, Calif.).\nMouse urines were collected by manual restraint or using a metabolic cage. The mouse urines were centrifuged at 1800 g for 10 minutes to remove debris before being frozen at −70° C. Urinary Cr concentration was quantified by a QuantiChrom™ creatinine assay kit (DICT-500) (BioAssay Systems) and albuminuria was measured by a QuantiChrom™ BCG albumin assay kit (DIAG-250) (BioAssay Systems)."}, "procaspases 12 and 3": {"tested_on": "procaspases 12 and 3", "experiment": "Western blot of cleaved caspase 12 and caspase 3 in podocyte lysates", "assay_type": "cell-based, mouse", "details": "Tg-C321R podocytes", "procedure": "(§2) Mouse primary podocytes and isolated glomeruli were lysed by RIPA buffer (Cell signaling) containing protease inhibitor cocktail (Sigma-Aldrich) and phosphatase inhibitor tablets (Roche, Indianapolis, Ind.). The protein concentrations of cell and glomerular lysates were determined by Bio-Rad Protein assay (Hercules, Calif.) using BSA as a standard. Denatured proteins were separated on SDS-polyacrylamide gels and then transferred to polyvinylidene difluoride membranes (Thermo Scientific). The membranes were blocked with 5% non-fat milk for 1 h and then incubated overnight with primary antibodies. Following incubation, membranes were washed with 0.1% Tris-buffered saline/Tween buffer and incubated with the appropriate HRP-conjugated secondary antibodies. The proteins were then detected using ECLplus kit (GE, Pittsburgh, Pa.) and visualized in an x-ray developer. To ensure equal protein loading, the same blot was stripped with stripping buffer (25 mM glycine and 1% SDS, pH 2.0) and then incubated with an HRP-conjugated anti-mouse β-actin antibody. Protein band intensities were quantified using Image J software (NIH, Bethesda, Md.)."}, "[2]": {"tested_on": "Tg-C321R primary podocytes", "experiment": "Cytosolic calcium levels measured by Fluo-4 AM", "assay_type": "cell-based, mouse", "procedure": "The cytosolic Ca^2+ levels were measured by Fluo-4 AM (Invitrogen). Primary podocytes of the indicated genotypes were plated on 6-well plates at 1×10^5 cells/well and stained with 2.5 μM Fluo-4 AM and 1 mM probenecid in the dark at 37° C. for 30 minutes. Then the cells were washed with PBS and kept in the dark for another 30 minutes to allow cleavage of intracellular AM esters. Fluorescence was measured by flow cytometer Calibur 3 (BD Biosciences, San Jose, Calif.) at the FACS core facility of Washington University School of Medicine. The results were analyzed by Cell Quest. For measuring intracellular Ca^2+ levels in primary podocytes treated with or without […] or MANF, cells were plated on 96-well plates at 0.8×10^4 cells per well and stained with Fluo-4 AM along with probenecid to enable high-throughput readout. Fluorescence was measured at excitation wavelength 485 nm and emission wavelength 528 nm by a fluorescent plate reader Synergy H1 (BioTek, Winooski, Vt.)."}, "Lamb2+/- mice": {"tested_on": "Lamb2+/- mice", "experiment": "K201 toxicity in control mice (kidney histology, BUN)", "assay_type": "in vivo, mouse", "details": "K201 4 weeks vs vehicle-treated control littermates", "procedure": "FIG. 13. […] HE staining of K201 or vehicle-injected kidneys at the end of treatment.\nas §1\nFor light microscopy, kidneys were fixed in 4% paraformaldehyde, dehydrated through graded ethanols, embedded in paraffin, sectioned at 4 μm, and stained with Hematoxylin & Eosin (H&E) by standard methods."}, "[3]": {"tested_on": "Tg-C321R primary podocytes", "experiment": "Annexin V-FITC/PI flow cytometry of early apoptosis", "assay_type": "cell-based, mouse", "procedure": "Apoptotic cell death was measured by FITC Annexin V/PI apoptosis detection kit (BD Biosciences) according to the manufacturer's protocol. […] The untreated- and treated-podocytes were harvested, washed with cold PBS twice, resuspended in binding buffer, and stained with Annexin V-FITC and PI in dark at room temperature for 15 minutes. After incubation, binding buffer was added, and the podocytes were analyzed by flow cytometer Calibur 3 (BD Biosciences). Unstained cells, cells stained with FITC-Annexin V or PI alone were used as controls to set up compensation and quadrants in flow cytometry. The results were analyzed by Cell Quest program."}, "RyR2": {"biological_target": "T1, RyR2 (Mus musculus, UniProt E9Q401)", "T1 construct": "endogenous in cells; host or cells: mouse primary podocytes from Tg-WT and Tg-C321R mice at P27", "experiment": "Western blot of p-RyR2 (S2808) and RyR in podocyte lysates", "assay_type": "cell-based", "details": "MANF 5 μg/ml, 24 hours, Tg-C321R podocytes"}, "CHOP": {"tested_on": "CHOP", "experiment": "Western blot of CHOP in podocyte lysates", "assay_type": "cell-based, mouse", "details": "MANF 5 μg/ml, 24 hours, Tg-C321R podocytes", "procedure": "as §2"}, "Umod C147W/+ mice": {"tested_on": "Umod C147W/+ mice", "experiment": "DOX-induced renal tubular MANF expression in ADTKD mouse model (BUN)", "assay_type": "in vivo", "details": "DOX-induced tubular MANF from 6 to 24 weeks of age, TETMANF/+, P8TA vs Umod C147W/+", "procedure": "as §1\nConditional renal tubular-specific MANF transgenic mice have been generated. TET-MANF mice were crossed with renal tubular-specific rtTA (Pax8-rtTA; P8TA) mice to generate bitransgenic TETMANF/+; P8TA mice, which were further bred to Umod C147W mice to generate Umod C147W/+; TETMANF/+; P8TA and Umod C147W/+; P8TA mice. Meanwhile, control Umod^+/+; TETMANF/+; P8TA and Umod^+/+; P8TA littermates were also generated. By administrating DOX, MANF expression was induced in renal tubules of Umod C147W/+; TETMANF/+; P8TA mice and control Umod^+/+; TETMANF/+; P8TA mice starting at 6 weeks of age until 24 weeks of age. Meanwhile, single transgenic mice including Umod C147W/+; P8TA and Umod^+/+; P8TA treated with DOX for the same duration were also included as controls."}, "XBP1s and ATF4": {"tested_on": "XBP1s and ATF4", "experiment": "Western blot of XBP1s and ATF4 in podocyte lysates", "assay_type": "cell-based, mouse", "details": "MANF 5 μg/ml, 24 hours, Tg-C321R podocytes", "procedure": "as §2"}, "[4]": {"details": "recombinant MANF 24 h, Example 3"}},
  "data": [
    {"molecule": "COc1ccc2c(c1)CN(C(=O)CCN1CCC(Cc3ccccc3)CC1)CCS2", "note": "[K201, 4-[-3{1-(4-Benzyl)piperidinyl}propionyl]-7-methoxy-2,3,4,5-tetrahydro-1,4-benzothiazepine]", "values": [
      {"measurement": "cell viability (MTT)", "setting": "primary podocytes", "result": "non-toxic"},
      {"measurement": "TG-induced ER calcium depletion (SERCaMP GLuc activity in the medium)", "setting": "[1]; 0.1 μM TG + 1 μM K201, 6 hours", "result": "abrogate TG-induced ER calcium depletion"},
      {"measurement": "albuminuria", "setting": "Tg-C321R mice; 3 weeks post-injection, vehicle 0.137±0.037", "result": "0.095±0.029", "unit": "g/mg Cr"},
      {"measurement": "albuminuria", "setting": "Tg-C321R mice; 4 weeks post-injection, vehicle 0.142±0.022", "result": "0.098±0.016", "unit": "g/mg Cr"},
      {"measurement": "Urinary calpain activity/Cr", "setting": "Tg-C321R mice; K201 12.5-15 mg/kg i.p. once daily vs 20% HBC, from 2 weeks to 4 weeks post-treatment", "result": "dramatically decreased"},
      {"measurement": "kidney function as indicated by blood urea nitrogen (BUN)", "setting": "Tg-C321R mice; end of 4 weeks of injection, Tg-C321R mice", "result": "improved kidney function"},
      {"measurement": "activation of procaspases 12 and 3", "setting": "procaspases 12 and 3; 5 μM K201, 24 hours", "result": "abolished"},
      {"measurement": "podocyte ER-to-cytosol calcium leak (cytosolic calcium, Fluo-4)", "setting": "[2]; 5 μM K201, 24 hours", "result": "markedly blocked"},
      {"measurement": "kidney histology (HE staining)", "setting": "Lamb2+/- mice", "result": "no abnormality"},
      {"measurement": "renal function as indicated by blood urea nitrogen (BUN)", "setting": "Lamb2+/- mice", "result": "no abnormality"},
      {"measurement": "early apoptotic rate (Annexin V+/PI- cells)", "setting": "[3]; 5 μM K201, 24 hours, DMSO control 24.73±2.22%", "result": "15.23±2.84", "unit": "%"}
    ]},
    {"molecule": "C/C=C(/C)C(=O)O[C@H]1C(C)=C2[C@H]([C@@H]1OC(=O)CCCCCCC)[C@@](C)(OC(C)=O)C[C@H](OC(=O)CCC)[C@@]1(O)[C@H]2OC(=O)[C@@]1(C)O", "note": "[thapsigargin]", "values": [
      {"measurement": "SERCaMP secretion (luciferase activity in the cell culture medium)", "setting": "[1]; 0.1 μM thapsigargin vs DMSO, 6 hours", "result": "increased"}
    ]},
    {"molecule": "B1", "values": [
      {"measurement": "phosphorylation of ER RyR2 (S2808)", "setting": "RyR2", "result": "reduced phosphorylation"},
      {"measurement": "active cleaved caspase 12", "setting": "procaspases 12 and 3; MANF 5 μg/ml, 24 hours", "result": "suppression"},
      {"measurement": "cytosolic calcium levels (Fluo-4)", "setting": "[2]; MANF recombinant protein 5 μg/ml, 24 hours", "result": "significantly decreased"},
      {"measurement": "CHOP induction", "setting": "CHOP", "result": "abrogated"},
      {"measurement": "kidney function (BUN levels)", "setting": "Umod C147W/+ mice", "result": "improved the kidney function"},
      {"measurement": "early apoptotic rate (Annexin V+/PI-)", "setting": "[3]; MANF 5 μg/ml, 24 hours, untreated 17.18±0.77%", "result": "10.09±0.51", "unit": "%"},
      {"measurement": "early apoptosis (Annexin V+/PI- podocytes), printed as after treatment", "setting": "[3]; [4]", "result": 17.27, "unit": "%"},
      {"measurement": "early apoptosis (Annexin V+/PI- podocytes), printed as before treatment", "setting": "[3]; [4]", "result": 10.73, "unit": "%"},
      {"measurement": "XBP1s and ATF4 induction", "setting": "XBP1s and ATF4", "result": "inhibition"}
    ]}
  ]
}
